In PMC11048033, “Dual Anti-Inflammatory and Anticancer Activity of Novel 1,5-Diaryl Pyrazole Derivatives: Molecular Modeling, Synthesis, In Vitro Activity, and Dynamics Study” (Biomedicines, 2024):
pIC50: −log10 of the molar value. Values joined by “and” are separate entries in the source; they are usually repeats but may differ in a detail not shown here. Equal values may be shown once.

Assays:
[1] = target: BSA (bovine albumin serum) (Bos taurus, UniProt P02769); assay: Protein (albumin) denaturation assay; settings: maximum inhibition; compounds tested at 50-200 µg/mL, diclofenac 100 µg/mL
Method: Mizushima and Kobayashi’s technique was employed for the determination of in vitro anti-inflammatory activity by the protein denaturation method for the synthesized compounds. […] Then, a mixture of 500µL of 1% aqueous solution of BSA (bovine albumin serum) and 1.4 mL of phosphate buffer saline (PBS, pH 7.4) was added to 100 µL of varying concentrations of the synthesized compounds 50, 100, and 200 µg/mL. […] The mixtures are then incubated for 15 min at 37 °C and then heated for 10 min at 60 °C. The absorbance was measured at 660nm (SHIMADZU, UV-1800 Spectrophotometer) upon cooling. […] The entire experiment was done in triplicate, and the average was calculated. % inhibition of protein denaturation was calculated by: % inhibition=Absorbance of Control−Absorbance of Sample/Absorbance of Control×100
The anti-inflammatory capacity of the target compound was evaluated using the protein denaturation assay.

Human COX-2 = target: T1, Human COX-2 (Homo sapiens, UniProt P35354); assay: In vitro COX-2 enzymatic assay (Cayman COX (human) Inhibitor Screening Assay Kit); type: biochemical; settings: human COX-2
T1 construct: purchased Cayman Chemicals 701230
T1 sequence (P35354 18-604): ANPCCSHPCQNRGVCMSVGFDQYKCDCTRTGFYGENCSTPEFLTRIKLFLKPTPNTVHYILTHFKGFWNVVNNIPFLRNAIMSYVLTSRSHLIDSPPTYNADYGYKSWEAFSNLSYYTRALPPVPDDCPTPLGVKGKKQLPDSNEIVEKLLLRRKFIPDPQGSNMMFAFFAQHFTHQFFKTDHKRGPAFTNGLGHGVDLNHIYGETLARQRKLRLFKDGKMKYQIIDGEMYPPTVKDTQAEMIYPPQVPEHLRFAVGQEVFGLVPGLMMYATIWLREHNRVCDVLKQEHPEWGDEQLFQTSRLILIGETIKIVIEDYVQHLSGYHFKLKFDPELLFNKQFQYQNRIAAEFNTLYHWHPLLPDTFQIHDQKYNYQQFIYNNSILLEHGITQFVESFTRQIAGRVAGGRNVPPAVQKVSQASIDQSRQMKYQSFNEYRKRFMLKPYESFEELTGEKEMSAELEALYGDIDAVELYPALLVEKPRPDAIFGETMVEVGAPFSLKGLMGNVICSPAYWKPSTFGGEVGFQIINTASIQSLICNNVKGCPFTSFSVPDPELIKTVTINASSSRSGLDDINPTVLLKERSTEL
Method: The ability of the compounds to inhibit COX -2 (IC50 values, µM) was determined by using a “COX (human) Inhibitor Screening Assay Kit” procured from Cayman Chemicals (catalog number 701230). With a slight modification in the method as defined in the reference, the COX-2 inhibition assay was performed. Using the percent conversion of arachidonic acid (AA) to PGH2, the enzyme activity was calculated. By enzyme immunoassay PGF2α, which is produced from PGH2 by reduction with stannous chloride, is calculated. The test compounds’ stock solutions are prepared by dissolving in a minimum amount of DMSO. Human COX-2 (10 µL) in the presence of 10 µL of heme was suspended in 0.1M Tris-HCl buffer (pH 8.0) which contains 2 mM phenol and 5 mM EDTA. This was added to various concentrations of test compounds and, on incubating the solutions at 37 °C for 5 min, 10 µL of AA solution were added. Later, the COX reaction was stopped by adding 1M HCl (50 µL) after 2 min. The intensity of the yellow color which is produced as the product of the enzymatic reaction is determined spectrophotometrically. The percent inhibition was calculated by comparing the compound treated to different control incubations. […] The determinations are done in triplicate and the IC50 (µM) was determined using the concentration–inhibition response curve.
During the initiation of the inflammatory process, the COX enzyme plays a vital role in the progression of inflammatory response. The inflammatory mediators that arise due to the action of COX lead to the chemoattraction of neutrophils, macrophages, eosinophils, etc. […] This was carried out with the help of a COX (human) inhibitor screening assay kit (Item no. 701230) from Cayman chemicals. […] A test substance concentration was considered to be inhibitive when it inhibited human COX-1 or COX-2 by 50%. The compound’s selectivity was measured by its selectivity index values, derived as IC50 (COX-1)/IC50 (COX-2).

[2] = test system: A549 (human lung adenocarcinoma) cell line; assay: MTT anticancer assay, A549; type: cell-based
Method: (§1) The in vitro anticancer activity is determined by counting the viable cells that are stained with a vital dye. The MTT technique is an accurate measure of the activity of live cells using mitochondrial dehydrogenases. The target tumor cells A549 (human lung adenocarcinoma) and HEPG2 (human liver) cell lines are procured from the “National Centre for Cell Science” (NCCS, Pune). The sources of reagents like Trypsin, DMEM, Pen strip, and FBS are procured from Himedia. […] The culture medium was prepared, and the MTT assay was performed as per the general procedure described by Mosmann T. et al., [30] and the % viability of the cells was determined.
(§2) The target compounds tested for in vitro COX-2 were further checked for in vitro anti-cancer activity against A549 (lung cancer) and HepG2 (liver cancer) cell lines using MTT growth inhibition assay. The compounds were tested for cytotoxicity against both the cell lines at concentrations of 6.25, 12.5, 25, 50, and 100 µg/mL. […] Using the graph where % cell viability is plotted versus concentration, the IC50 values are determined with the help of the dose–response regression equation.

[3] = test system: HEPG2 (human liver) cell line; assay: MTT anticancer assay, HepG2; type: cell-based
Method: as §1, §2

BSA (bovine albumin serum), sequence (P02769 25-607): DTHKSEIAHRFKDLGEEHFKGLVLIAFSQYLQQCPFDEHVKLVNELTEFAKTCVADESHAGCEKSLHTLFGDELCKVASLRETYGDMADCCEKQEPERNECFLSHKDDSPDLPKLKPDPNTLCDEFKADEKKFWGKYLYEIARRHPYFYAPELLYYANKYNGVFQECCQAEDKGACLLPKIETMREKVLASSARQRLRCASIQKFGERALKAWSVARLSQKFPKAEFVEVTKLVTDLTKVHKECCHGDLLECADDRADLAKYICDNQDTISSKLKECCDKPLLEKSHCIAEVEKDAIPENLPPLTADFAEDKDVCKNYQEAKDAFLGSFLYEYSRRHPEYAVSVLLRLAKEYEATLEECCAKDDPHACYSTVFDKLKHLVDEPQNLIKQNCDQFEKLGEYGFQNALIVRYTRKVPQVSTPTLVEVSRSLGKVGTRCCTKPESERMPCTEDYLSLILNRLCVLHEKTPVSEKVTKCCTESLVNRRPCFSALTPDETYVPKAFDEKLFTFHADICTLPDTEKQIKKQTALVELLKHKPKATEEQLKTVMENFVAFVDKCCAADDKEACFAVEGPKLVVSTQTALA

For `Cc1cc(C=NNC(=O)c2cc(-c3ccc(Cl)cc3)n(-c3ccc(S(N)(=O)=O)cc3)n2)cc(C)c1OCc1ccccc1` [Compound T6, 4-(3-(2-(4-(benzyloxy)-3,5-dimethylbenzylidene) hydrazine-1-carbonyl)-5-(4-chlorophenyl)-1H-pyrazol-1-yl)benzenesulfonamide], the “% inhibition of albumin denaturation” value [1] was 61.05%, the pIC50 (Human COX-2) was 5.60 and 5.59 and the viability at 6.25 µg/mL ([2]; Homo sapiens, A549, 6.25 µg/ml) was 97.7%. The viability at 12.5 µg/mL ([2]; Homo sapiens, A549, 12.5 µg/ml) was 87%, the viability at 25 µg/mL ([2]; Homo sapiens, A549, 25 µg/ml) was 78.8% and the viability at 50 µg/mL ([2]; Homo sapiens, A549, 50 µg/ml) was 74.6%. The viability at 100 µg/mL ([2]; Homo sapiens, A549, 100 µg/ml) was 63.4%, the IC50 ([2]; Homo sapiens, MTT, A549, read-out: IC50 against A549) was over 100 mg/L and the “anti-cancer activity against HepG2 cell line (in words)” value ([3]; HepG2) was “active”. It also gave a viability at 6.25 µg/mL ([3]; Homo sapiens, HepG2, 6.25 µg/ml) of 24.1%, a viability at 12.5 µg/mL ([3]; Homo sapiens, HepG2, 12.5 µg/ml) of 11% and a viability at 25 µg/mL ([3]; Homo sapiens, HepG2, 25 µg/ml) of 2.99%. For the same molecule, the viability at 50 µg/mL ([3]; Homo sapiens, HepG2, 50 µg/ml) was 2.87%, the viability at 100 µg/mL ([3]; Homo sapiens, HepG2, 100 µg/ml) was 2.62% and the IC50 ([3]; Homo sapiens, MTT, HepG2, read-out: IC50 against HepG2) was under 6.25 mg/L.

`NS(=O)(=O)c1ccc(-n2nc(C(=O)NN=Cc3ccc(Oc4ccccc4)cc3)cc2-c2ccc(Cl)cc2)cc1` [Compound T8, 4-(5-(4-chlorophenyl)-3-(2-(4-phenoxybenzylidene) hydrazine-1-carbonyl)-1H-pyrazol-1-yl) benzenesulfonamide] was tested, and the “% inhibition of albumin denaturation” value [1] was “less than 50%”.

`NS(=O)(=O)c1ccc(-n2nc(C(=O)NN=Cc3ccc(Cl)cc3O)cc2-c2ccc(Br)cc2)cc1` [Compound T9, 4-(5-(4-bromophenyl)-3-(2-(4-chloro-2-hydroxybenzylidene) hydrazine-1-carbonyl)-1H-pyrazol-1-yl) benzenesulfonamide] was tested, and the “% inhibition of albumin denaturation” value [1] was 67.77%, the IC50 (Human COX-2) was 3.5 µM and the “% cell viability” value ([2]; A549, 6.25 µg/ml) was 91.72%. For the same molecule, the “% cell viability” value ([2]; A549, 12.5 µg/ml) was 84.82%, the “% cell viability” value ([2]; A549, 25 µg/ml) was 76.64% and the “% cell viability” value ([2]; A549, 50 µg/ml) was 66.94%. The “% cell viability” value ([2]; A549, 100 µg/ml) was 54.57%, the “IC50 against A549” value ([2]; MTT, A549) was over 100 µM and the “% cell viability” value ([3]; HepG2, 6.25 µg/ml) was 85.46%. For the same molecule, the “% cell viability” value ([3]; HepG2, 12.5 µg/ml) was 84.90%, the “% cell viability” value ([3]; HepG2, 25 µg/ml) was 79.30% and the “% cell viability” value ([3]; HepG2, 50 µg/ml) was 67.24%. The “% cell viability” value ([3]; HepG2, 100 µg/ml) was 54.42% and the “IC50 against HepG2” value ([3]; MTT, HepG2) was over 100 µM.

With `COc1ccc(-c2cc(C(=O)NN=Cc3cccc(Oc4ccccc4)c3)nn2-c2ccc(S(N)(=O)=O)cc2)cc1` [Compound T1, 4-(5-(4-methoxyphenyl)-3-(2-(3-phenoxybenzylidene) hydrazine-1-carbonyl)-1H-pyrazol-1-yl) benzenesulfonamide] the “% inhibition of albumin denaturation” value [1] was “less than 50%”.

For `NS(=O)(=O)c1ccc(-n2nc(C(=O)NN=Cc3ccc(Oc4ccccc4)cc3)cc2-c2ccc(Br)cc2)cc1` [Compound T7, 4-(5-(4-bromophenyl)-3-(2-(4-phenoxybenzylidene) hydrazine-1-carbonyl)-1H-pyrazol-1-yl) benzenesulfonamide], the “% inhibition of albumin denaturation” value [1] was “less than 50%”.

With `NS(=O)(=O)c1ccc(-n2nc(C(=O)NN=Cc3ccc(Cl)cc3O)cc2-c2ccccc2)cc1` [Compound T10, 4-(3-(2-(4-chloro-2-hydroxybenzylidene) hydrazine-1-carbonyl)-5-phenyl-1H pyrazol-1-yl) benzenesulfonamide] the “% inhibition of albumin denaturation” value [1] was “less than 50%”.

With `NS(=O)(=O)c1ccc(-n2nc(C(=O)NN=Cc3cccc(Oc4ccccc4)c3)cc2-c2ccc(Br)cc2)cc1` [Compound T4, 4-(5-(4-bromophenyl)-3-(2-(3-phenoxybenzylidene) hydrazine-1-carbonyl)-1H-pyrazol-1-yl) benzenesulfonamide] the “% inhibition of albumin denaturation” value [1] was “less than 50%”.

`COc1ccc(-c2cc(C(=O)NN=Cc3ccc(Oc4ccccc4)cc3)nn2-c2ccc(S(N)(=O)=O)cc2)cc1` [Compound T2, 4-(5-(4-methoxyphenyl)-3-(2-(4-phenoxybenzylidene) hydrazine-1-carbonyl)-1H-pyrazol-1-yl) benzenesulfonamide] was tested, and the “% inhibition of albumin denaturation” value [1] was 81.77%, the IC50 (Human COX-2) was 12 µM and the “anti-cancer activity against A549 cell lines (in words)” value ([2]; A549) was “active”. For the same molecule, the “% cell viability” value ([2]; A549, 6.25 µg/ml) was 95.63%, the “% cell viability” value ([2]; A549, 12.5 µg/ml) was 81.83% and the “% cell viability” value ([2]; A549, 25 µg/ml) was 54.02%. For the same molecule, the “% cell viability” value ([2]; A549, 50 µg/ml) was 33.98%, the “% cell viability” value ([2]; A549, 100 µg/ml) was 18.25% and the “concentration at which compound was effective (from % inhibitory values)” value ([2]; A549 cell lines) was 25 µg/mL. For the same molecule, the “IC50 against A549” value ([2]; MTT, A549) was 31.49 µM, the “% cell viability” value ([3]; HepG2, 6.25 µg/ml) was 78.42% and the “% cell viability” value ([3]; HepG2, 12.5 µg/ml) was 77.90%. For the same molecule, the “% cell viability” value ([3]; HepG2, 25 µg/ml) was 71.82%, the “% cell viability” value ([3]; HepG2, 50 µg/ml) was 67.10% and the “% cell viability” value ([3]; HepG2, 100 µg/ml) was 64.39%. The “IC50 against HepG2” value ([3]; MTT, HepG2) was over 100 µM.
